Laboratory results reported in publication PMC6234229, “The role of loops B and C in determining the potentiation of GABAA receptors by midazolam” (Pharmacology Research & Perspectives, 2018).

How the values were obtained:
Assay in all cases: Midazolam potentiation of EC10 GABA currents, whole-cell patch clamp, HEK293T
Format in all cases: cell-based
α2β2γ2 GABAA receptor = molecular target: T1, α2β2γ2 GABAA receptor (Homo sapiens, UniProt P18507+P47869+P47870)
T1 construct: expressed in transfected cells; host or cells: HEK293T
T1 sequence (P47869 29-451): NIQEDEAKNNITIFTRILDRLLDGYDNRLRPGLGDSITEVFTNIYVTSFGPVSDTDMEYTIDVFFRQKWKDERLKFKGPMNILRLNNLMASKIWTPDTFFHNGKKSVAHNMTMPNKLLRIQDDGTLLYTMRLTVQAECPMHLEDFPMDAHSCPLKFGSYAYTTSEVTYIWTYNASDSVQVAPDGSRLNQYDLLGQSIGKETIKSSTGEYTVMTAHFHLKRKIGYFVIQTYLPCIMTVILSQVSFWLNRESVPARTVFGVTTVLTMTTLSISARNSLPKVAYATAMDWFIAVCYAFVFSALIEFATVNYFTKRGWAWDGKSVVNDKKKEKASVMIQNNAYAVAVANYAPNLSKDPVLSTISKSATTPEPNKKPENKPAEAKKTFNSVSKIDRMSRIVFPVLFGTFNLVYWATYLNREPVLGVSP
T1 sequence (P47870 25-512 limits assumed): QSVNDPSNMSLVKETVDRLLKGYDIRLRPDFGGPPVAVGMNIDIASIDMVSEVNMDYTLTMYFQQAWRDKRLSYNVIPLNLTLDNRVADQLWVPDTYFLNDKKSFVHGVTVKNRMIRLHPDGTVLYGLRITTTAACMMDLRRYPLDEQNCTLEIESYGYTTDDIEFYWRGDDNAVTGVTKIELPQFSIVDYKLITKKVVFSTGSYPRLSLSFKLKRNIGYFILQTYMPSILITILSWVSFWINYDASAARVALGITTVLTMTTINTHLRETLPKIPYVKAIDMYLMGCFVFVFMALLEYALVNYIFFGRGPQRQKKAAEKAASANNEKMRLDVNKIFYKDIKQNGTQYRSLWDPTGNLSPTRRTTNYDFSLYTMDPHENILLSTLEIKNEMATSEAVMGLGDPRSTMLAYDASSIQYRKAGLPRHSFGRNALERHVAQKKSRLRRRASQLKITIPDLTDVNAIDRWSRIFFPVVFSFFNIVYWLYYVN
T1 sequence (P18507 40-467 isoform P18507-1 limits assumed): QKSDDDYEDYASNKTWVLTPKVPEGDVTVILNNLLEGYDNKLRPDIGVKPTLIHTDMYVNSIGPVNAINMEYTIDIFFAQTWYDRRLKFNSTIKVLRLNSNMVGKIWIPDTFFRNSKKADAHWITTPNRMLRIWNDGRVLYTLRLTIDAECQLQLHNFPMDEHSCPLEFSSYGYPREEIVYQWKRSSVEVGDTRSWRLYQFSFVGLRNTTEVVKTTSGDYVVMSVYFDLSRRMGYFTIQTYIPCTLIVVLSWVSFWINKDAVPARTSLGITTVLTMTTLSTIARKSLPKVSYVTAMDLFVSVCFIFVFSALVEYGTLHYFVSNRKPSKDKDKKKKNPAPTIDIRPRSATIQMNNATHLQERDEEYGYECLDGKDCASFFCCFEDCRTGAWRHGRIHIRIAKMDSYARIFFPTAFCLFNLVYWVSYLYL
Text: (§1) Human (Homo sapiens) GABAA subunits (α1‐6, β2, γ2s) were subcloned into pcDNA3.1+ vectors with a cytomegalovirus (CMV) promoter. The hβ2 and hα3 sequences were humanized rat (Rattus norvegicus) cDNA with amino acid substitutions made to match the human protein sequence. The α1‐3, α5, β2, and γ2s subunits were a generous gift from Neil L. Harrison (Columbia University Medical Center, NY). The α4 subunit was obtained from GenScript (Piscataway, NJ), and the α6 subunit was a generous gift from Robert L. McDonald (Vanderbilt University, TN). All point mutations (listed in Figure 1C) were introduced using the QuikChange Lightening site‐directed mutagenesis kit (Agilent Technologies, Santa Clara, CA) according to the manufacturer's instructions and were confirmed by sequencing (Eurofins MWG Operon, Louisville, KY).
(§2) Human embryonic kidney cells containing the SV40 T‐antigen (HEK293T) were acquired from American Type Culture Collection (ATCC®, Manassas, VA), catalogue number, CRL3216. HEK293T cells were maintained at 37°C and 5% CO2 in Eagle Minimum Essential Medium (MEM) supplemented with 5% fetal bovine serum (Atlanta Biologicals Inc., Flowery Branch, GA), 40 μM L‐glutamine, 100 U/mL penicillin and 0.1 mM streptomycin. Cells were passaged regularly when they reached 70% confluency using trypsin. Cells were not passaged more than 22 times. New cells were revived from frozen stocks at passage 2‐4. Cells used for in vitro electrophysiology experiments were grown on poly‐D‐lysine‐coated glass coverslips (No.2, VWR, Radnor, PA) and transfected with X‐tremeGENE (Roche Diagnostics, Indianapolis, IN) with the desired receptor subunit cDNAs at a 1:1:1 ratio to express αxβ2γ2s receptors (2 μg total cDNA) and with 0.5 μg green fluorescent protein (GFP) as an expression marker. The γ2s incorporation into receptors was tested with zinc inhibition assays regularly.24 Patch clamp experiments were performed on cells at 24‐72 hours post‐transfection. All experiments were performed at 22°C. Experiments consisted of at least five cells recorded per day from at least two transfections across 3‐4 days to control for cell health and transfection efficiency. At least three cells expressing wild‐type receptors were recorded on days that mutant receptors were tested to provide a time‐matched expression control. All reagents were purchased from Sigma‐Aldrich (St. Louis, MO) unless otherwise stated.
(§3) Extracellular solution contained 161 mM NaCl, 3 mM KCl, 1 mM MgCl2, 1.5 mM CaCl2, 10 mM HEPES, and 6 mM D‐glucose, adjusted to pH 7.4 with NaOH (320‐330 mOsm). […] The perfusion system was controlled by protocols written in pClamp 9 (Molecular Devices, LLC., Sunnyvale, CA). Whole‐cell currents were recorded at ‐60 mV, filtered at 100 Hz and sampled at 200 Hz with a MultiClamp 700B amplifier (Molecular Devices, LLC) and DigiData 1322A (Molecular Devices, LLC) digitizer. […] Cells were recorded with the midazolam protocol no more than two times to avoid desensitization and incomplete washout or irreversible modulation.
(§4) Recordings were analyzed using MATLAB (Math Works, Inc., Natick, MA). […] The maximum peak current, EC50 and Hill coefficient were estimated for assays from each cell. When Hill parameters are estimated from whole‐cell recordings, the changes in the parameters across receptor conditions can be ascribed to the following changes in receptor physiology. Changes in maximum current can be due to changes in the single‐channel conductance or the rate of desensitization. Changes in cell surface receptor expression can cause minor changes in maximum current, but are unlikely to occur in the time course of our experimental protocol. […] More often minor changes in the Hill coefficient are attributed to the altered homogeneity in the receptor population expressed by the HEK293T cell. For example, a shallower Hill coefficient could be caused by a shift in the population of receptors from mostly αβγ receptors to a combination of both αβ and αβγ receptors.

α6β2γ2 GABAA receptor = molecular target: T2, α6β2γ2 GABAA receptor (Homo sapiens, UniProt P18507+P47870+Q16445); conditions: for Midazolam potentiation (%): α6β2γ2
T2 construct: expressed in transfected cells; host or cells: HEK293T
T2 sequence (Q16445 20-453): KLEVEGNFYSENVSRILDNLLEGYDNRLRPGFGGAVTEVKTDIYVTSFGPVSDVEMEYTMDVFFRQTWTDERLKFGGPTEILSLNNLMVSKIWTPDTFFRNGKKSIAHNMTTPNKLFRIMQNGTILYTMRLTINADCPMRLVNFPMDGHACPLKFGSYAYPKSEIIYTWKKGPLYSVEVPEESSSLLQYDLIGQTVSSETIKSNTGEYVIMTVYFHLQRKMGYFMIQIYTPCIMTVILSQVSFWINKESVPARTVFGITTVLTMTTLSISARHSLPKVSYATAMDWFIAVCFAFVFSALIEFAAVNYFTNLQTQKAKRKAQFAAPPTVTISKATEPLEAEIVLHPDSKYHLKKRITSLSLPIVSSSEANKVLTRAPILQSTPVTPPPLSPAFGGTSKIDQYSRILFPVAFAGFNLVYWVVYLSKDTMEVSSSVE
T2 sequence (P47870 26-474 isoform P47870-1 limits assumed): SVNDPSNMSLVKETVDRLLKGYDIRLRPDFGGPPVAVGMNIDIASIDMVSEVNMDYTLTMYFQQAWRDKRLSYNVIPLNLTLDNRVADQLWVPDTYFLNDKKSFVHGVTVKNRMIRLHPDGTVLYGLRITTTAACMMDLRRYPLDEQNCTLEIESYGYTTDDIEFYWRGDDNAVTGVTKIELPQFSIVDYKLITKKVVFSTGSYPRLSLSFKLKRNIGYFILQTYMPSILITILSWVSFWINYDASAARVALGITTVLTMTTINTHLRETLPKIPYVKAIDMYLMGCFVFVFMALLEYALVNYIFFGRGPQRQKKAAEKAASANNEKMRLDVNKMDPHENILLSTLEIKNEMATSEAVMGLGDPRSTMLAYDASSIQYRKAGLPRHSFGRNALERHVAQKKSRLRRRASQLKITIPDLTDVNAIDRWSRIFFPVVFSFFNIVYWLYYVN
T2 sequence (P18507 40-467 isoform P18507-1 limits assumed): as the sequence (P18507 40-467 isoform P18507-1 limits assumed) above
Text: as §1, §2, §3, §4

[1] = molecular target: T3, α2(T162P)β2γ2 GABAA receptor (Homo sapiens, UniProt P18507+P47869+P47870, T190P)
T3 construct: expressed in transfected cells; host or cells: HEK293T
T3 sequence (P47869 29-451 T190P): as the sequence (P47869 29-451) above, with T162P counted along it
T3 sequence (P47870 25-512 limits assumed): as the sequence (P47870 25-512 limits assumed) above
T3 sequence (P18507 40-467 isoform P18507-1 limits assumed, stated change not applied): as the sequence (P18507 40-467 isoform P18507-1 limits assumed) above
Text: as §1, §2, §3, §4

α4β2γ2 GABAA receptor = molecular target: T4, α4β2γ2 GABAA receptor (Homo sapiens, UniProt P18507+P47870+P48169); conditions: for Midazolam potentiation (%): α4β2γ2
T4 construct: expressed in transfected cells; host or cells: HEK293T
T4 sequence (P48169 36-554): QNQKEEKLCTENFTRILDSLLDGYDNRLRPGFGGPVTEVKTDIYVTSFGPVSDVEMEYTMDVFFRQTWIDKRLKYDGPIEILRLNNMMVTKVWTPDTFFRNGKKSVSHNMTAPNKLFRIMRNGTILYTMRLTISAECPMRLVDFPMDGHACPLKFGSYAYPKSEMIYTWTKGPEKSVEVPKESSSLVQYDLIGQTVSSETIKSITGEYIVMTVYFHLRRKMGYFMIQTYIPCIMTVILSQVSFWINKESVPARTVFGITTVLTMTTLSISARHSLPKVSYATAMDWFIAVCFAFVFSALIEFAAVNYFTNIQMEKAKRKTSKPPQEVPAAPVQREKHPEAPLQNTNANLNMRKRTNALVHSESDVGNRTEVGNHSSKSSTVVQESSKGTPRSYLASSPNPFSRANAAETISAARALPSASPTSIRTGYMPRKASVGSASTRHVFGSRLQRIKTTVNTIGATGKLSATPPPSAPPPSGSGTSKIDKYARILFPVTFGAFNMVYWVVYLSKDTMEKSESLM
T4 sequence (P47870 26-474 isoform P47870-1 limits assumed): as the sequence (P47870 26-474 isoform P47870-1 limits assumed) above
T4 sequence (P18507 40-467 isoform P18507-1 limits assumed): as the sequence (P18507 40-467 isoform P18507-1 limits assumed) above
Text: as §1, §2, §3, §4

[2] = molecular target: T5, α1(T163P)β2γ2 GABAA receptor (Homo sapiens, UniProt P14867+P18507+P47870, T190P)
T5 construct: expressed in transfected cells; host or cells: HEK293T
T5 sequence (P14867 28-456 T190P): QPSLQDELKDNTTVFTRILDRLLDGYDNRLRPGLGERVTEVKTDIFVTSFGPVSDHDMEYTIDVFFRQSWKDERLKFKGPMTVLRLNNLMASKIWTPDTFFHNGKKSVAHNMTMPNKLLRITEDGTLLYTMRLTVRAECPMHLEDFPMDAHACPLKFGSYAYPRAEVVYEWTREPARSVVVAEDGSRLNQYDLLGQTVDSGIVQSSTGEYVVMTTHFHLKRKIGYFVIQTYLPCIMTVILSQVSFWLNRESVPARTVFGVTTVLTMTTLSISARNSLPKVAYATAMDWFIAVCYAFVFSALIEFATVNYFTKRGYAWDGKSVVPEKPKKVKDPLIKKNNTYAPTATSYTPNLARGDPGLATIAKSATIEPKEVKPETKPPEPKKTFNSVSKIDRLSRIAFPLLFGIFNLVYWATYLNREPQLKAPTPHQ
T5 sequence (P47870 25-512 limits assumed): as the sequence (P47870 25-512 limits assumed) above
T5 sequence (P18507 40-467 isoform P18507-1 limits assumed, stated change not applied): as the sequence (P18507 40-467 isoform P18507-1 limits assumed) above
Text: as §1, §2, §3, §4

[3] = molecular target: T6, α3(S230I)β2γ2 GABAA receptor (Homo sapiens, UniProt P18507+P34903+P47870, S258I)
T6 construct: expressed in transfected cells; host or cells: HEK293T
T6 sequence (P34903 29-492 S258I): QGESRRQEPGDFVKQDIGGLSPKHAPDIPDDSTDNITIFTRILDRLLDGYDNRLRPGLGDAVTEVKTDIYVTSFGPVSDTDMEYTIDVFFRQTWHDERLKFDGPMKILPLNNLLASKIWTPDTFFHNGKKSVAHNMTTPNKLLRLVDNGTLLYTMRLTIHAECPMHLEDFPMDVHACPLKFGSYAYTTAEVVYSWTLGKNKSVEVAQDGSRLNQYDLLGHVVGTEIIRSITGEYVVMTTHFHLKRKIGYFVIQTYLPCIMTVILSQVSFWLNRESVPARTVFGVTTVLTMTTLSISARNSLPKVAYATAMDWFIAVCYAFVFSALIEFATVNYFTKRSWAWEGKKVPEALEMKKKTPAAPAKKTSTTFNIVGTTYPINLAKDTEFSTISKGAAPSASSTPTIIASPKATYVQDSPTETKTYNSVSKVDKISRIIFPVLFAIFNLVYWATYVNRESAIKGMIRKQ
T6 sequence (P47870 25-512 limits assumed): as the sequence (P47870 25-512 limits assumed) above
T6 sequence (P18507 40-467 isoform P18507-1 limits assumed, stated change not applied): as the sequence (P18507 40-467 isoform P18507-1 limits assumed) above
Text: as §1, §2, §3, §4

[4] = molecular target: T7, α4(I204S)β2γ2 GABAA receptor (Homo sapiens, UniProt P18507+P47870+P48169, I239S)
T7 construct: expressed in transfected cells; host or cells: HEK293T
T7 sequence (P48169 36-554 I239S): as the sequence (P48169 36-554) above, with I204S counted along it
T7 sequence (P47870 26-474 isoform P47870-1 limits assumed, stated change not applied): as the sequence (P47870 26-474 isoform P47870-1 limits assumed) above
T7 sequence (P18507 40-467 isoform P18507-1 limits assumed, stated change not applied): as the sequence (P18507 40-467 isoform P18507-1 limits assumed) above
Text: as §1, §2, §3, §4

Cc1ncc2n1-c1ccc(Cl)cc1C(c1ccccc1F)=NC2 [midazolam]
EC50 (α2β2γ2 GABAA receptor): 50.9 ± 5.05 nM
Midazolam potentiation (%) (α2β2γ2 GABAA receptor; 10 nM MDZ + EC10 GABA, α2β2γ2): 19.47 ± 4.19%
Midazolam potentiation (%) (α2β2γ2 GABAA receptor; 50 nM MDZ + EC10 GABA, α2β2γ2): 69.08 ± 17.73%
Midazolam potentiation (%) (α2β2γ2 GABAA receptor; 100 nM MDZ + EC10 GABA, α2β2γ2): 128.98 ± 36.14%
Midazolam potentiation (%) (α2β2γ2 GABAA receptor; 500 nM MDZ + EC10 GABA, α2β2γ2): 167.38 ± 49.89%
Midazolam potentiation (%) (α2β2γ2 GABAA receptor; 1000 nM MDZ + EC10 GABA, α2β2γ2): 165.35 ± 48.98%
Max potentiation (%) (α2β2γ2 GABAA receptor; α2β2γ2, Hill fit, midazolam 10-1000 nM + EC10 GABA): 169.6 ± 49.9%
Hill coefficient (α2β2γ2 GABAA receptor; α2β2γ2, midazolam Hill fit): 1.743 ± 0.133
Midazolam potentiation (%) (α6β2γ2 GABAA receptor; 10 nM MDZ + EC10 GABA): 14.66 ± 3.92%
Midazolam potentiation (%) (α6β2γ2 GABAA receptor; 50 nM MDZ + EC10 GABA): 14.55 ± 3.86%
Midazolam potentiation (%) (α6β2γ2 GABAA receptor; 100 nM MDZ + EC10 GABA): 14.58 ± 4.87%
Midazolam potentiation (%) (α6β2γ2 GABAA receptor; 500 nM MDZ + EC10 GABA): 11.15 ± 6.25%
Midazolam potentiation (%) (α6β2γ2 GABAA receptor; 1000 nM MDZ + EC10 GABA): 23.34 ± 4.23%
responsiveness to midazolam potentiation (α6β2γ2 GABAA receptor; wildtype α6β2γ2): no notable midazolam potentiation
EC50 [1]: 42 ± 2.86 nM
Midazolam potentiation (%) ([1]; 10 nM MDZ + EC10 GABA, α2(T162P)): 26.45 ± 4.06%
Midazolam potentiation (%) ([1]; 50 nM MDZ + EC10 GABA, α2(T162P)): 81.24 ± 9.43%
Midazolam potentiation (%) ([1]; 100 nM MDZ + EC10 GABA, α2(T162P)): 129.24 ± 14.94%
Midazolam potentiation (%) ([1]; 500 nM MDZ + EC10 GABA, α2(T162P)): 156.21 ± 15.70%
Midazolam potentiation (%) ([1]; 1000 nM MDZ + EC10 GABA, α2(T162P)): 150.36 ± 15.00%
Max potentiation (%) ([1]; α2(T162P), Hill fit, midazolam 10-1000 nM + EC10 GABA): 158.2 ± 15.8%
Hill coefficient ([1]; α2(T162P), midazolam Hill fit): 1.393 ± 0.073
Midazolam potentiation (%) (α4β2γ2 GABAA receptor; 10 nM MDZ + EC10 GABA): 10.98 ± 3.61%
Midazolam potentiation (%) (α4β2γ2 GABAA receptor; 50 nM MDZ + EC10 GABA): 13.30 ± 4.65%
Midazolam potentiation (%) (α4β2γ2 GABAA receptor; 100 nM MDZ + EC10 GABA): 15.15 ± 4.85%
Midazolam potentiation (%) (α4β2γ2 GABAA receptor; 500 nM MDZ + EC10 GABA): 15.98 ± 5.42%
Midazolam potentiation (%) (α4β2γ2 GABAA receptor; 1000 nM MDZ + EC10 GABA): 17.89 ± 4.82%
responsiveness to midazolam potentiation (α4β2γ2 GABAA receptor; wildtype α4β2γ2): no notable midazolam potentiation
EC50 [2]: 61.1 ± 3.72 nM
Midazolam potentiation (%) ([2]; 10 nM MDZ + EC10 GABA, α1(T163P)): 14.19 ± 4.15%
Midazolam potentiation (%) ([2]; 50 nM MDZ + EC10 GABA, α1(T163P)): 49.96 ± 8.44%
Midazolam potentiation (%) ([2]; 100 nM MDZ + EC10 GABA, α1(T163P)): 96.68 ± 15.00%
Midazolam potentiation (%) ([2]; 500 nM MDZ + EC10 GABA, α1(T163P)): 124.27 ± 18.98%
Midazolam potentiation (%) ([2]; 1000 nM MDZ + EC10 GABA, α1(T163P)): 123.00 ± 18.99%
Max potentiation (%) ([2]; α1(T163P), Hill fit, midazolam 10-1000 nM + EC10 GABA): 127.7 ± 16.0 %
Hill coefficient ([2]; α1(T163P), midazolam Hill fit): 2.113 ± 0.154
Midazolam potentiation (%) ([3]; 10 nM MDZ + EC10 GABA, α3(S230I)): 37.59 ± 4.12%
Midazolam potentiation (%) ([3]; 50 nM MDZ + EC10 GABA, α3(S230I)): 139.86 ± 12.63%
Midazolam potentiation (%) ([3]; 100 nM MDZ + EC10 GABA, α3(S230I)): 280.95 ± 24.73%
Midazolam potentiation (%) ([3]; 500 nM MDZ + EC10 GABA, α3(S230I)): 413.27 ±37.70%
Midazolam potentiation (%) ([3]; 1000 nM MDZ + EC10 GABA, α3(S230I)): 428.92 ± 38.09%
EC50 ([3]; EC50 (nM), α3(S230I), midazolam potentiation of EC10 GABA): 73.6 nM
enhancement of maximum midazolam potentiation relative to wildtype ([3]; α3(S230I) vs α3β2γ2): approximately 63%
Max potentiation (%) ([3]; α3(S230I), Hill fit, midazolam 10-1000 nM + EC10 GABA): 436.0 ± 39.4%
Hill coefficient ([3]; α3(S230I), midazolam Hill fit): 1.655 ± 0.061
responsiveness to midazolam potentiation [4]: failed to convey any notable midazolam potentiation
Midazolam potentiation (%) ([4]; 10 nM MDZ + EC10 GABA): 9.47 ± 1.93%
Midazolam potentiation (%) ([4]; 50 nM MDZ + EC10 GABA): 13.23 ± 1.68%
Midazolam potentiation (%) ([4]; 100 nM MDZ + EC10 GABA): 16.59 ± 1.59%
Midazolam potentiation (%) ([4]; 500 nM MDZ + EC10 GABA): 20.16 ± 2.01%
Midazolam potentiation (%) ([4]; 1000 nM MDZ + EC10 GABA): 23.95 ± 2.33%
